Patent US7091199B1, “Thienoisoxazole phenoxy unsubstituted ethyl and propyl derivatives useful as d4 antagonists” (Aventis Pharmaceuticals Inc., priority 1999, dated 2006)
Where a name gives a salt, the structure may show the parent alone. Values belong to the compound of their own block, whether it stands above or below them.

Legend:
[1] = biological target: T1, human D4 receptor (D4.2 sub-type) (Homo sapiens, UniProt P21917, DEL271-302); experiment: D4 receptor binding assay (3H-spiperone displacement); conditions: for Ki: 3H-spiperone 0.25 nM, HEK cell membranes, human D4.2, read-out: D4 RBA Ki
T1 sequence (P21917 with tags, fused parts or gaps DEL271-302): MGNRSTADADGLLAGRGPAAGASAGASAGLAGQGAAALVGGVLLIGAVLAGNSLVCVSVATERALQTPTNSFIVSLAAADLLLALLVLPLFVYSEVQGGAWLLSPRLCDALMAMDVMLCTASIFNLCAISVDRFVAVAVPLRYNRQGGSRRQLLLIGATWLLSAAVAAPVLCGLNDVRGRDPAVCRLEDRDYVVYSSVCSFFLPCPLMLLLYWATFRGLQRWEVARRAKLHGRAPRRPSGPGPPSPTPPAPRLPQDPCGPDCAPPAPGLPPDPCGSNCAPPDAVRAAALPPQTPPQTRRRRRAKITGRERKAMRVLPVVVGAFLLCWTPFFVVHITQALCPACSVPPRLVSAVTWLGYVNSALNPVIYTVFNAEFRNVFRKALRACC
Description: D4 receptor-binding affinities of the compounds were evaluated according to their ability to reduce binding of ^3H-spiperone as compared to the reference compound clozapine. The potency of the test compound to reduce ^3H-spiperone binding directly correlated to its binding affinity for the receptor.
[…] (human embryonic kidney) cells stably transfected with human D4 receptor (D4.2 sub-type) were grown in NUNC cell factories for 5 days (75% confluency) without a media change and removed with versene (approximately 19 mg of cells per cell factory tray). The cells were then centrifuged in a Sorval centrifuge for 10 min, 5000 rpm (GS3 rotor) and the pellets quickly frozen in liquid nitrogen and stored at −80° C. until used in binding assay. When used in the assay, cells were thawed on ice for 20 min and then 10 mL of incubation buffer (50 mM Tris, 1 mM EDTA, 4 mM MgCl2, 5 mM KCl, 1.5 mM CaCl2, 120 mM NaCl, pH 7.4) was added. The cells were then vortexed to resuspend pellet and homogenized with a Kinematica, CH-6010 Kriens-LU, homogenizer for 15 seconds at setting 7. Concentration of receptor protein was determined using the Pierce BCA assay.
The incubation was started by the addition of 100 μl (50 μg protein) membrane homogenate to a solution of 300 μl incubation buffer and 100 μl (0.25 nM final conc.) ^3H-spiperone (90 Ci/mmol, Amersham, diluted in borosilicate glass vial) in 96-well polypropylene plates (1 mL per well). The plates were vortexed and incubated at room temperature for 90 minutes. The binding reaction was stopped by filtering using a Packard Harvester. The samples were filtered under vacuum over glass fibre filter plates (Whatman GF/B) presoaked for 2 hours in 0.3% polyethylenimine (PEI) in 50 mM Tris buffer (pH 7.4). The filters were then washed 6 times with 7 mL ice cold 50 mM Tris buffer (pH 7.4). The filter plates were dried overnight and 35 μl of Microscint-O (Packard) was added. The plates were sealed and counted in the Packard Top Count (3 minutes per well).
The incubation was started by the addition of 100 μl (50 μg protein) membrane homogenate to a solution of 200 μl incubation buffer, 100 μl ^3H-spiperone (90 Ci/mmol, Amersham, diluted in borosilicate glass vial to 0.25 nM final conc.) and 100 μl (30 μM final conc.) of fresh dopamine (Research Biochemicals Inc., light protected and dissolved in incubation buffer) in 96-well polypropylene plates (1 mL per well). The plates were vortexed and incubated at room temperature for 90 minutes at which time the binding reaction was stopped by filtering. The filters were washed and counted using the same procedure as in the total binding assay described above to give the non-specific binding value (NSB).
The incubation was started by the addition, in 96-well polypropylene plates (1 mL per well), of 100 μl (50 μg protein) membrane homogenate to a solution of 200 μl incubation buffer, 100 μl (0.25 nM final conc.) ^3H-spiperone (90 Ci/mmol, Amersham, diluted in borosilicate glass vial) and 100 μl of test compound that was prepared from 1 mM stock dissolved in DMSO and stored at −20° C. in polypropylene cryogenic storage vials until dilution in incubation buffer in 96-well polypropylene plates. The plates were vortexed and incubated at room temperature for 90 minutes at which time the binding reaction was stopped by filtering. The filters were washed and counted using the same procedure as in the total binding assay described above to give the displacement binding value (BD).
The test compounds were initially assayed at 1 and 0.1 μM and then at a range of concentrations chosen such that the middle dose would cause about 50% inhibition of ^3H-spiperone binding. Specific binding in the absence of test compound (B0) was the difference of total binding (BT) minus non-specific binding (NSB) and similarly specific binding (in the presence of test compound) (B) was the difference of displacement binding (BD) minus non-specific binding (NSB). […]

[2] = tested on: CD-1 or C57 male mice (MK-801 induced stereotypy); experiment: MK-801 Stereotypy in Mice; format: in vivo; conditions: Mus musculus; for inhibition in vivo at 20 mg/kg: po, read-out: Antag. of MK 801 Stereotypy % Inhib. @ 20 mg/kg
Description: Mk-801 dose-dependently induces characteristic stereotypy marked by locomotion and falling behavior. This MK-801 induced behavior can be antagonized by novel neuroleptic agents. This assay can also assess time course effects following drug administration.
CD-1 or C57 male mice are individually placed in activity boxes (8 mice/drug) and allowed to acclimate for 60 minutes. The mice are then administered test compounds either i.p., s.c., or p.o., at 15, 30, or 60 minutes prior to MK-801 (0.2 mg/kg) administration. Mice are observed for the presence of locomotion and falling behaviors 15 minutes following MK-801. For the duration of action studies the test compounds are administered i.p., s.c., or p.o., at 30, 60, 120, 180, and 240 minutes prior to MK-801 administration.

[3] = tested on: D4.2 variant; conditions: read-out: EC50 of dopamine; cited from earlier work
[4] = biological target: human D4 receptor with seven repeat units (D4.7 variant); conditions: read-out: EC50 of dopamine; cited from earlier work

- Ki [1]: 12 nM
- melting point: 195 to 197 °C
Compound: Cl.c1ccc(CNCCCOc2cccc(-c3noc4ccsc34)c2)cc1 [Compound 1, benzyl-[3-(3-theino[2,3-d]isoxazol-3-yl-phenoxy)-propyl]-amine hydrochloride]
- ED50 ([2]; PO, MK-801 stereotypy, read-out: In Vivo ED50): 14.6 mg/kg

Compound: NCCc1ccc(O)c(O)c1 [dopamine]
- EC50 [3]: 15 nM
- EC50 [4]: 40 nM

- Ki [1]: 34 nM
Compound: Clc1ccc(CNCCOc2cccc(-c3noc4ccsc34)c2)cc1 [Compound 18, (4-chloro-benzyl)-[2-(3-thieno[2,3-d]isoxazol-3-yl-phenoxy)-ethyl]-amine]
- inhibition in vivo at 20 mg/kg [2]: 37.5%

- inhibition at 1 µM ([1]; @ 1 μM test compound, 3H-spiperone binding, read-out: D4 RBA % Inhibition (@ 1 μM)): 100%
Compound: c1ccc(CNCCOc2cccc(-c3noc4ccsc34)c2)cc1 [Compound 31, benzyl-[2-(3-thieno[2,3-d]isoxazol-3-yl-phenoxy)-ethyl]-amine hydrochloride]
- inhibition in vivo at 20 mg/kg [2]: 37.5%
